According to patent US12565515B2, “1,2,4-oxadiazole compounds as inhibitors of CD47 signalling pathways” (AURIGENE ONCOLOGY LIMITED, priority 2018, dated 2026):

The compounds below were run on luciferase expressing Raji cells (assay: Luciferase based phagocytosis assay). Conditions: human monocyte-derived macrophages, luminescence, read-out: % normalized phagocytosis (at 10 μM).
Assay type: cell-based
Protocol: (§1) DPBS (Gibco), RPMI 1640 WITH HEPES AND L-GLN-500 ML (Lonza), Recombinant Human M-CSF (R& D systems), CD47 Monoclonal Antibody (B6H12), Functional Grade antibody (Ebioscience), Mouse IgG1 kappa Isotype Control, Functional Grade (Ebioscience), Vacutainer (multiple sample luer adapter) (BD), Vacutainer (sodium heparin (NH) 158USP units, Blood collection tubes (BD), Histopaque (density—1.077 gm/ml) (SIGMA 1077), Trypan Blue solution (SIGMA-T8154), Hemacytometer (Bright line-SIGMA Z359629), Scalp vein infusion set (JMS), Cell Dissociation buffer (Gibco), 48-well sterile flat bottom plates (Corning), Luciferase expressing Raji cells (Generated in house by trasfection of luciferase gene in Raji cells) Luminometer, Hygromycin B (Invitrogen), Bright Glo luciferase assay system (Promega), 96 well plate, polystyrene, high band, white flat bottom wells (Sigma CLS3912), APC anti-mouse/human CD11b Antibody (Biolegend), H929 cells, CFSE (Ebioscience), Fetal Bovine Serum (Gibco Cat #: 10437028), Round-Bottom FACs Tubes (BD), Flowcytometer BD FACS Verse, 96 well plates, ultra-low attachment (Corning).
In vitro phagocytosis assay was performed to evaluate the ability of test item to enhance the phagocytic activity of macrophages. Monocytes were isolated from blood of healthy donor and cultured for 6-8 days using 10% RPMI (Roswell Park Memorial Institute) media and recombinant human M-CSF to differentiate into macrophages. Media was changed every alternate day. After differentiation, adherent macrophages were collected by gentle scraping and cultured in 10% RPMI overnight at a density of 0.1 million per well in 48 well tissue culture plate. Simultaneously, luciferase expressing Raji cells were cultured in 10% RPMI media with 100 μg/mL of hygromycin B in tissue culture flask. On the day of phagocytosis, macrophages were serum starved for 2 hours. 0.4 million luciferase expressing Raji cells per well were incubated with anti human CD47 purified B6H12 or Mouse IgG1 K Isotype Control antibody or various concentrations of test item in serum free media for 30 min at 37° C. and added into respective well of the 48 well plate seeded with macrophages. After 2 hours, cells were washed twice with PBS and 100 μL of serum free RPMI was added to each well. Additionally, 50 μL Bright Glow reagent was added to each well followed by mixing of cells and incubated for 5 min in dark. Luminescence reading was taken using plate reader after transferring the content of each well to white plate. Intensity of luminescence indicated the extent of phagocytosis. Each experimental condition was carried out in duplicate.

In order of rising activation at 10 µM:
1. N=C(N)NCCC[C@H](NC(=O)N[C@@H](CCC(=O)O)c1nc([C@@H]2CCCN2)no1)C(=O)O [Compound 8]  20%
2. N=C(N)NCCC[C@H](NC(=O)N[C@@H](CCC(N)=O)c1nc([C@@H](N)CC(N)=O)no1)C(=O)O [Compound 9]  38%
3. NCCCC[C@H](N)c1noc([C@H](CCC(N)=O)NC(=O)N2CCC[C@H]2C(=O)O)n1 [Compound 1, (((S)-4-amino-1-(3-((S)-1,5-diaminopentyl)-1,2,4-oxadiazol-5-yl)-4-oxobutyl)carbamoyl)-L-proline]  39%
4. N=C(N)NCCC[C@H](NC(=O)N1CCCC1C(=O)O)c1nc([C@@H](N)CCC(=O)O)no1 (stereo partly drawn) [Compound 3]  42%
5. N=C(N)NCCC[C@H](NC(=O)N[C@@H](CCC(N)=O)C(=O)O)c1nc([C@@H](N)CCC(N)=O)no1 [Compound 12]  44%
6. NCc1noc([C@H](Cc2cnc[nH]2)NC(=O)N[C@@H](Cc2ccccc2)C(=O)O)n1 [Compound 14]  47%
7. NCCCC[C@H](N)c1noc([C@H](CCC(=O)O)NC(=O)N[C@@H](Cc2cnc[nH]2)C(=O)O)n1 [Compound 13]  49%
8. N=C(N)NCCC[C@H](N)c1noc([C@H](CCC(=O)O)NC(=O)N[C@@H](Cc2ccccc2)C(=O)O)n1 [Compound 7, (S)-4-(3-((S)-1-amino-4-guanidinobutyl)-1,2,4-oxadiazol-5-yl)-4-(3-((S)-1-carboxy-2-phenylethyl)ureido)butanoic acid]  58%

These compounds were tested on H929 cells (assay: FACS based phagocytosis assay). Conditions: NCI-H929, human macrophages, CFSE stained H929 cells, flow cytometry, normalized to positive control B6H12.
Assay type: cell-based
Protocol: as §1
Monocytes were isolated from blood of healthy donor and cultured for 6-8 days using 10% RPMI (Roswell Park Memorial Institute) media and recombinant human M-CSF to differentiate into macrophages. Media was changed every alternate day. Simultaneously, H929 cells were cultured in 10% RPMI media with 50 μg/mL of betamercaptoethanol in tissue culture flask. On the day of phagocytosis adherent macrophages were serum starved for 2 hours in RPMI media. Simultaneously H929 cells were stained with 0.3 μM CFSE stain. After washing, 0.2 million CFSE stained H929 cells were incubated with anti-human CD47 or Mouse IgG1 K Isotype Control antibody or various conc of test item in serum free media for 30 min at 37° C. After 2 hours of serum starvation macrophages were dissociated with cell dissociation buffer and collected by gentle scraping and added at conc of 0.05 million per well into respective wells of the ultra-low attachment 96 well plate seeded with H929 cells. Phagocytosis was allowed for 2 hours. After 2 hours, cells were washed with PBS and stained with 1 μL of anti-human CD11b-APC antibody prepared in 100 μL of PBS for 30 min in 4° C. in dark. Cells were further washed and fixed in 100 μL of fixation buffer until acquired by Flow cytometry. The extent of phagocytosis of H929 cells by human macrophages was measured by acquiring the samples by Flow cytometry. Samples acquired by Flow cytometry were analysed by using FlowJo software. Each experimental condition was carried out in duplicate. Cells positive for FITC (CFSE) and CD11b-APC were considered as phagocytosed macrophages. Raw data of % phagocytosis by macrophages were obtained in the form of excel sheet from FlowJo. % phagocytosis from isotype control (background phagocytosis) was subtracted from % phagocytosis of macrophages treated with compound as well as other controls to get corrected phagocytosis values. Corrected phagocytosis values of compound treated samples were normalized with phagocytosis of positive control (B6H12) using the formula: % normalized phagocytosis=[(corrected % phagocytosis of compound)/(corrected phagocytosis of B6H12)*100]

In order of falling activation at 10 µM:
1. N=C(N)NCCC[C@H](NC(=O)N1CCCC1C(=O)O)c1nc([C@@H](N)CCC(=O)O)no1 (stereo partly drawn) [Compound 3]  73%
2. NCCCC[C@H](N)c1noc([C@H](CCC(=O)O)NC(=O)NCC(=O)O)n1 [Compound 15]  62%
3. N=C(N)NCCC[C@H](NC(=O)N1CCCC1C(=O)O)c1nc([C@@H](N)CC(=O)O)no1 (stereo partly drawn) [Compound 23]  60%
4. N=C(N)NCCC[C@H](NC(=O)N1CCCC1C(=O)O)c1nc(CN)no1 (stereo partly drawn) [Compound 31]  58%
5. N=C(N)NCCC[C@H](NC(=O)N1CCCC1C(=O)O)c1nc([C@@H](N)CCC(N)=O)no1 (stereo partly drawn) [Compound 5]  56%
6. N[C@@H](Cc1cnc[nH]1)c1noc([C@H](Cc2ccccc2)NC(=O)N2CCCC2C(=O)O)n1 (stereo partly drawn) [Compound 19]  52%
7. N[C@@H](CCC(=O)O)c1noc([C@H](CCC(=O)O)NC(=O)N2CCCC2C(=O)O)n1 (stereo partly drawn) [Compound 32]  46%
8. NCCCC[C@H](N)c1noc([C@H](CCC(N)=O)NC(=O)N2CCC[C@H]2C(=O)O)n1 [Compound 1, (((S)-4-amino-1-(3-((S)-1,5-diaminopentyl)-1,2,4-oxadiazol-5-yl)-4-oxobutyl)carbamoyl)-L-proline]  45%
9. NCCCC[C@H](NC(=O)N[C@@H](CCC(N)=O)c1nc([C@@H](N)CC(N)=O)no1)C(=O)O [Compound 43]  43%
10. N=C(N)NCCC[C@H](NC(=O)N[C@@H](CCC(=O)O)c1nc([C@@H]2CCCN2)no1)C(=O)O [Compound 8]  40%
11. N=C(N)NCCC[C@H](N)c1noc([C@H](CCC(=O)O)NC(=O)N[C@@H](Cc2ccccc2)C(=O)O)n1 [Compound 7, (S)-4-(3-((S)-1-amino-4-guanidinobutyl)-1,2,4-oxadiazol-5-yl)-4-(3-((S)-1-carboxy-2-phenylethyl)ureido)butanoic acid]  38%
12. N=C(N)NCCC[C@H](N)c1noc([C@H](CCC(=O)O)NC(=O)N2CCCC2C(=O)O)n1 (stereo partly drawn) [Compound 2]  37%
13. N[C@@H](CCC(=O)O)c1noc([C@H](CO)NC(=O)N2CCCC2C(=O)O)n1 (stereo partly drawn) [Compound 35]  35%
14. N[C@@H](CCC(=O)O)c1noc(CNC(=O)N2CCCC2C(=O)O)n1 (stereo partly drawn) [Compound 17]  33%
15. N[C@@H](CCC(=O)O)c1noc(CNC(=O)N[C@@H](Cc2cnc[nH]2)C(=O)O)n1 [Compound 22]  33%
16. N[C@@H](CCC(=O)O)c1noc([C@H](Cc2ccccc2)NC(=O)N2CCC[C@H]2C(=O)O)n1 [Compound 33]  31%
17. NCCCC[C@H](NC(=O)NCc1nc([C@@H](N)CCC(N)=O)no1)C(=O)O [Compound 41]  31%
18. N=C(N)NCCC[C@H](NC(=O)N[C@@H](Cc1c[nH]c2ccccc12)C(=O)O)c1nc([C@@H](N)CCC(=O)O)no1 [Compound 46]  30%
19. NCCCC[C@H](N)c1noc([C@H](CCC(=O)O)NC(=O)N[C@@H](Cc2cnc[nH]2)C(=O)O)n1 [Compound 13]  29%
20. N=C(N)NCCC[C@H](NC(=O)NCC(=O)O)c1nc([C@@H](N)CCC(=O)O)no1 [Compound 48]  29%
21. N=C(N)NCCC[C@H](NC(=O)N[C@@H](Cc1ccccc1)C(=O)O)c1nc([C@@H](N)CCC(N)=O)no1 [Compound 10]  28%
22. N[C@@H](Cc1ccccc1)c1noc(CNC(=O)N2CCCC2C(=O)O)n1 (stereo partly drawn) [Compound 16]  27%
23. COC(=O)C1CCCN1C(=O)NC(CCCNC(=N)N)c1nc([C@@H](N)CCC(=O)O)no1 (stereo partly drawn) [Compound 40]  27%
24. NCc1noc([C@H](Cc2cnc[nH]2)NC(=O)N[C@@H](Cc2ccccc2)C(=O)O)n1 [Compound 14]  26%
25. CCC(C)[C@H](N)c1noc([C@H](CCCNC(=N)N)NC(=O)N2CCCC2C(=O)O)n1 (stereo partly drawn) [Compound 29]  26%
26. NC(=O)CC[C@H](N)c1noc(CNC(=O)N[C@@H](CCC(=O)O)C(=O)O)n1 [Compound 50]  26%
27. N=C(N)NCCC[C@H](NC(=O)N[C@@H](CCC(=O)O)C(=O)O)c1nc([C@@H](N)CCC(=O)O)no1 [Compound 51]  24%
28. N=C(N)NCCC[C@H](NC(=O)N1CCCC1C(=O)O)c1nc([C@@H](N)Cc2c[nH]c3ccccc23)no1 (stereo partly drawn) [Compound 30]  23%
29. COC(=O)CC[C@H](N)c1noc(C(CCCNC(=N)N)NC(=O)N2CCCC2C(=O)OC)n1 (stereo partly drawn) [Compound 39]  23%
30. N=C(N)NCCC[C@H](NC(=O)N[C@@H](CCC(N)=O)C(=O)O)c1nc([C@@H](N)CCC(N)=O)no1 [Compound 12]  20%
31. CC(C)C[C@H](NC(=O)N[C@@H](CCCNC(=N)N)c1nc([C@@H](N)CCC(=O)O)no1)C(=O)O [Compound 44]  20%
32. N=C(N)NCCC[C@H](NC(=O)N[C@@H](CC(=O)O)C(=O)O)c1nc([C@@H](N)CCC(=O)O)no1 [Compound 47]  18%
33. CCC(C)[C@H](NC(=O)N[C@@H](CCCNC(=N)N)c1nc([C@@H](N)CCC(=O)O)no1)C(=O)O (stereo partly drawn) [Compound 37]  17%
34. NC(=O)CC[C@H](N)c1noc([C@H](CCC(=O)O)NC(=O)N2CCCC2C(=O)O)n1 (stereo partly drawn) [Compound 21]  13%
